This assay concerns UptA Q64A. Kind of assay: Native MS of C55-P binding to UptA mutant Q64A. Also on record: species or system Bacillus subtilis. The settings on record: 5 µM protein, 10 µM C55-P, pH 8.02, 0.05% LDAO, 200 mM ammonium acetate, collisional activation 100 V; three biological replicates. An excerpt:
Conserved arginine residues in the putative membrane reentrant loops of E. coli DedA proteins YqjA (R130) and YghB (R136) are important for the cellular role of these proteins ([36]). […] How these residues impact substrate interactions, however, is not known. Based on the model structure of UptA predicted by AlphaFold, the R112 residue should engage Q64 while R118 is able to form hydrogen bonds with E32, H119, and W146 to potentially stabilize the membrane reentrant loops (Fig. 3A). To test for the impact of these residues on C55-P binding, we generated the E32A, Q64A, R112A, R118A, H119A, and W146A UptA single mutants. After purification of the proteins, using the same protocol as the wild type (WT) (Materials and Methods and SI Appendix, Fig. S5), we equilibrated aliquots of each protein variant (5 µM) with C55-P (10 µM) and recorded spectra using the same instrument settings. […] We additionally generated a double mutant R112E/R118E in which the polarity of both native arginine residues in the wild type are reversed.
Expression and purification of UptA
Plasmids were used to transform chemically competent E. coli C43(DE3) cells (Lucigen) and selected on LB/Agar containing 100 μg/ml ampicillin at 37 °C. Single colonies were used to inoculate 60 mL LB containing 100 μg/ml ampicillin and were grown at 37 °C overnight for 16 h. […]

Structures are written as SMILES.

Experimental findings from publication PMC11474028, “Lipopeptide antibiotics disrupt interactions of undecaprenyl phosphate with UptA” (Proceedings of the National Academy of Sciences of the …, 2024) are described below.

Turning to `CC(C)=CCC/C(C)=C/CC/C(C)=C/CC/C(C)=C\CC/C(C)=C\CC/C(C)=C\CC/C(C)=C\CC/C(C)=C\CC/C(C)=C\CC/C(C)=C\CC/C(C)=C\COP(=O)(O)O` [C55-P, undecaprenyl phosphate], the “reduction in C55-P binding intensity compared to wild type, Q64A (in words)” value is reported as “modest reduction”.
